For 22 compounds, IC50 results are on record in patent US20140357655A1, “SPIROINDOLINE DERIVATIVES AS GONADOTROPIN- RELEASING HORMONE RECEPTOR ANTAGONISTS” (Bayer Intellectual Property GmbH, priority 2012, published 2014).

The IC50 is the point on the concentration scale where inhibition reaches its midpoint.

In this assay the target is T1, human GnRH receptor (Homo sapiens, UniProt P30968).
T1 sequence (P30968 1-328): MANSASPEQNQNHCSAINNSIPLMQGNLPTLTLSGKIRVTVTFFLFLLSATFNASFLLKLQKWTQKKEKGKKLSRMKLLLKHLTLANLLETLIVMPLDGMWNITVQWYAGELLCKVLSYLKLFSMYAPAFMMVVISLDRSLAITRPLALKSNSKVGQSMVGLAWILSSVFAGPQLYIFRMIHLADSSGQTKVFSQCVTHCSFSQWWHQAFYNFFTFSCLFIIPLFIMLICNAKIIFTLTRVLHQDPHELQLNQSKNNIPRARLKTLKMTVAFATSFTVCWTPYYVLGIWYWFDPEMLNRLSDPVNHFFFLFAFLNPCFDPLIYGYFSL
Kind of assay: IP-One HTRF assay with buserelin (at EC80) stimulation. The note with it: CHO cells stably expressing human GnRH receptor, read-out: Potency in IP-One HTRF assay, given as IC50. The assay is classed as cell-based. The gist of the method:
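Ten-point duplicate titrations (20 μM to 1 nM) were fitted by 4-parameter model to normalized 665/620 nm HTRF ratios, 0% = no compound, 100% = no agonist. Assay measured IP1 accumulation in human GnRH-R CHO cells stimulated 1 h at 37° C with EC80 buserelin, then lysed 1 h at 22° C.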
A general note: Time-resolved FRET reads energy transfer from a long-lived donor to a nearby acceptor.
As to `O=C(Nc1ccon1)c1ccc2c(c1)C1(CCS(=O)(=O)CC1)C(C1CC1)N2S(=O)(=O)c1ccc(F)cc1` (stereo not shown) [Example 63, 2-cyclopropyl-1-[(4-fluorophenyl)sulfonyl]-N-(1,2-oxazol-3-yl)-1,2,2′,3′,5′,6′-hexahydrospiro[indole-3,4′-thiopyran]-5-carboxamide 1′,1′-dioxide], the IC50 turned out to be 0.325 µM.
For the compound `CN(C)C(=NS(=O)(=O)c1cccc(NC(=O)c2ccc3c(c2)C2(CCS(=O)(=O)CC2)C(C2CC2)N3S(=O)(=O)c2ccc(F)cc2)c1)N(C)C` (stereo not shown) [Example 64, N-(3-{[bis(dimethylamino)methylidene]sulfamoyl}phenyl)-2-cyclopropyl-1-[(4-fluorophenyl)sulfonyl]-1,2,2′,3′,5′,6′-hexahydrospiro[indole-3,4′-thiopyran]-5-carboxamide 1′,1′-dioxide], the IC50 is 0.0093 µM.
`O=C(NCc1ccc(C(F)(F)F)cn1)c1ccc2c(c1)C1(CCS(=O)(=O)CC1)C(C1CC1)N2S(=O)(=O)c1ccc(F)cc1` (stereo not shown) [Example 65, 2-cyclopropyl-1-[(4-fluorophenyl)sulfonyl]-N-{[5-(trifluoromethyl)pyridin-2-yl]methyl}-1,2,2′,3′,5′,6′-hexahydrospiro[indole-3,4′-thiopyran]-5-carboxamide 1′,1′-dioxide]: the IC50 turned out to be 0.479 µM.
Regarding `Cc1cc(NS(=O)(=O)c2cccc(NC(=O)c3ccc4c(c3)C3(CCS(=O)(=O)CC3)C(C3CC3)N4S(=O)(=O)c3ccc(F)cc3)c2)no1` (stereo not shown) [Example 66, 2-cyclopropyl-1-[(4-fluorophenyl)sulfonyl]-N-{3-[(5-methyl-1,2-oxazol-3-yl)sulfamoyl]phenyl}-1,2,2′,3′,5′,6′-hexahydrospiro[indole-3,4′-thiopyran]-5-carboxamide 1′,1′-dioxide], the IC50 was 0.177 µM.
For `O=C(NCc1ccccc1C(F)F)c1ccc2c(c1)C1(CCS(=O)(=O)CC1)C(C1CC1)N2S(=O)(=O)c1ccc(F)cc1` (stereo not shown) [Example 68, 2-cyclopropyl-N-[2-(difluoromethyl)benzyl]-1-[(4-fluorophenyl)sulfonyl]-1,2,2′,3′,5′,6′-hexahydrospiro[indole-3,4′-thiopyran]-5-carboxamide 1′,1′-dioxide], the IC50 was 0.0045 µM.
The result for `O=C(NCc1ccccc1O)c1ccc2c(c1)C1(CCS(=O)(=O)CC1)C(C1CC1)N2S(=O)(=O)c1ccc(F)cc1` (stereo not shown) [Example 69, 2-cyclopropyl-1-[(4-fluorophenyl)sulfonyl]-N-(2-hydroxybenzyl)-1,2,2′,3′,5′,6′-hexahydrospiro[indole-3,4′-thiopyran]-5-carboxamide 1′,1′-dioxide] reads 0.32 µM; that for `N#Cc1ccc(S(=O)(=O)N2c3ccc(C(=O)NCc4ncccc4Cl)cc3C3(CCS(=O)(=O)CC3)C2C2CC2)cc1` (stereo not shown) [Example 70, N-[(3-chloropyridin-2-yl)methyl]-1-[(4-cyanophenyl)sulfonyl]-2-cyclopropyl-1,2,2′,3′,5′,6′-hexahydrospiro[indole-3,4′-thiopyran]-5-carboxamide 1′,1′-dioxide], 0.063 µM; that for `N#Cc1ccc(S(=O)(=O)N2c3ccc(C(=O)Nc4cncc(Cl)c4)cc3C3(CCS(=O)(=O)CC3)C2C2CC2)cc1` (stereo not shown) [Example 71, N-(5-chloropyridin-3-yl)-1-[(4-cyanophenyl)sulfonyl]-2-cyclopropyl-1,2,2′,3′,5′,6′-hexahydrospiro[indole-3,4′-thiopyran]-5-carboxamide 1′,1′-dioxide], 0.052 µM.
The result for `N#Cc1ccc(S(=O)(=O)N2c3ccc(C(=O)NCc4ccccc4C(F)(F)F)cc3C3(CCS(=O)(=O)CC3)C2C2CC2)cc1` (stereo not shown) [Example 72, 1-[(4-cyanophenyl)sulfonyl]-2-cyclopropyl-N-[2-(trifluoromethyl)benzyl]-1,2,2′,3′,5′,6′-hexahydrospiro[indole-3,4′-thiopyran]-5-carboxamide 1′,1′-dioxide] reads 0.013 µM; that for `N#Cc1ccc(S(=O)(=O)N2c3ccc(C(=O)Nc4ncco4)cc3C3(CCS(=O)(=O)CC3)C2C2CC2)cc1` (stereo not shown) [Example 73, 1-[(4-cyanophenyl)sulfonyl]-2-cyclopropyl-N-(1,3-oxazol-2-yl)-1,2,2′,3′,5′,6′-hexahydrospiro[indole-3,4′-thiopyran]-5-carboxamide 1′,1′-dioxide], 0.13 µM; that for `N#Cc1ccc(S(=O)(=O)N2c3ccc(C(=O)Nc4ccccc4Cl)cc3C3(CCS(=O)(=O)CC3)C2C2CC2)cc1` (stereo not shown) [Example 74, N-(2-chlorophenyl)-1-[(4-cyanophenyl)sulfonyl]-2-cyclopropyl-1,2,2′,3′,5′,6′-hexahydrospiro[indole-3,4′-thiopyran]-5-carboxamide 1′,1′-dioxide], 0.066 µM.
As for `N#Cc1cccc(S(=O)(=O)N2c3ccc(C(=O)NCc4ccccc4Cl)cc3C3(CCS(=O)(=O)CC3)C2C2CC2)c1` (stereo not shown) [Example 76, N-(2-chlorobenzyl)-1-[(3-cyanophenyl)sulfonyl]-2-cyclopropyl-1,2,2′,3′,5′,6′-hexahydrospiro[indole-3,4′-thiopyran]-5-carboxamide 1′,1′-dioxide], the IC50 is 0.044 µM.
The result for `N#Cc1cccc(S(=O)(=O)N2c3ccc(C(=O)Nc4cncc(Cl)c4)cc3C3(CCS(=O)(=O)CC3)C2C2CC2)c1` (stereo not shown) [Example 77, N-(5-chloropyridin-3-yl)-1-[(3-cyanophenyl)sulfonyl]-2-cyclopropyl-1,2,2′,3′,5′,6′-hexahydrospiro[indole-3,4′-thiopyran]-5-carboxamide 1′,1′-dioxide] reads 0.7 µM.
For `N#Cc1cccc(S(=O)(=O)N2c3ccc(C(=O)Nc4ncco4)cc3C3(CCS(=O)(=O)CC3)C2C2CC2)c1` (stereo not shown) [Example 78, 1-[(3-cyanophenyl)sulfonyl]-2-cyclopropyl-N-(1,3-oxazol-2-yl)-1,2,2′,3′,5′,6′-hexahydrospiro[indole-3,4′-thiopyran]-5-carboxamide 1′,1′-dioxide], the IC50 is 0.706 µM.
As for `N#Cc1cccc(S(=O)(=O)N2c3ccc(C(=O)NCc4ncccc4C(F)(F)F)cc3C3(CCS(=O)(=O)CC3)C2C2CC2)c1` (stereo not shown) [Example 79, 1-[(3-cyanophenyl)sulfonyl]-2-cyclopropyl-N-{[3-(trifluoromethyl)pyridin-2-yl]methyl}-1,2,2′,3′,5′,6′-hexahydrospiro[indole-3,4′-thiopyran]-5-carboxamide 1′,1′-dioxide], the IC50 is 0.064 µM.
On to `N#Cc1cccc(S(=O)(=O)N2c3ccc(C(=O)Nc4ccon4)cc3C3(CCS(=O)(=O)CC3)C2C2CC2)c1` (stereo not shown) [Example 80, 1-[(3-cyanophenyl)sulfonyl]-2-cyclopropyl-N-(1,2-oxazol-3-yl)-1,2,2′,3′,5′,6′-hexahydrospiro[indole-3,4′-thiopyran]-5-carboxamide 1′,1′-dioxide], for which the IC50 was determined as 0.218 µM.
Turning to `O=C(NCc1ccccc1Cl)c1ccc2c(c1)C1(CCS(=O)(=O)CC1)C(C1CC1)N2S(=O)(=O)c1cccc(OC(F)(F)F)c1` (stereo not shown) [Example 81, N-(2-chlorobenzyl)-2-cyclopropyl-1-{[3-(trifluoromethoxy)phenyl]sulfonyl}-1,2,2′,3′,5′,6′-hexahydrospiro[indole-3,4′-thiopyran]-5-carboxamide 1′,1′-dioxide], the IC50 worked out at 0.437 µM.
For the compound `COC(=O)c1cccc(NC(=O)c2ccc3c(c2)C2(CCS(=O)(=O)CC2)C(C2CC2)N3S(=O)(=O)c2cccc(OC(F)(F)F)c2)c1` (stereo not shown) [Example 82, methyl 3-{[(2-cyclopropyl-1′,1′-dioxido-1-{[3-(trifluoromethoxy)phenyl]sulfonyl}-1,2,2′,3′,5′,6′-hexahydrospiro[indole-3,4′-thiopyran]-5-yl)carbonyl]amino}benzoate], the IC50 was 0.609 µM.
`O=C(O)c1cccc(NC(=O)c2ccc3c(c2)C2(CCS(=O)(=O)CC2)C(C2CC2)N3S(=O)(=O)c2cccc(OC(F)(F)F)c2)c1` (stereo not shown) [Example 83, 3-{[(2-cyclopropyl-1′,1′-dioxido-1-{[3-(trifluoromethoxy)phenyl]sulfonyl}-1,2,2′,3′,5′,6′-hexahydrospiro[indole-3,4′-thiopyran]-5-yl)carbonyl]amino}benzoic acid]: the IC50 is 0.14 µM.
For the compound `O=C(NCc1ncccc1C(F)(F)F)c1ccc2c(c1)C1(CCS(=O)(=O)CC1)C(C1CC1)N2S(=O)(=O)c1cccc(OC(F)(F)F)c1` (stereo not shown) [Example 84, 2-cyclopropyl-1-{[3-(trifluoromethoxy)phenyl]sulfonyl)-N-{[3-(trifluoromethyl)pyridin-2-yl]methyl}-1,2,2′,3′,5′,6′-hexahydrospiro[indole-3,4′-thiopyran]-5-carboxamide 1′,1′-dioxide], the IC50 turned out to be 0.309 µM.
Turning to `Cc1cncc(NC(=O)c2ccc3c(c2)C2(CCS(=O)(=O)CC2)C(C2CC2)N3S(=O)(=O)c2cccc(OC(F)(F)F)c2)c1` (stereo not shown) [Example 85, 2-cyclopropyl-N-(5-methylpyridin-3-yl)-1-{[3-(trifluoromethoxy)phenyl]sulfonyl}-1,2,2′,3′,5′,6′-hexahydrospiro[indole-3,4′-thiopyran]-5-carboxamide 1′,1′-dioxide], the IC50 was found to be 0.804 µM.
Consider `O=C(NCc1ccccc1Cl)c1ccc2c(c1)C1(CCS(=O)(=O)CC1)C(C1CC1)N2S(=O)(=O)c1cccc(OC(F)F)c1` (stereo not shown) [Example 86, N-(2-chlorobenzyl)-2-cyclopropyl-1-{[3-(difluoromethoxy)phenyl]sulfonyl}-1,2,2′,3′,5′,6′-hexahydrospiro[indole-3,4′-thiopyran]-5-carboxamide 1′,1′-dioxide], for which the IC50 is 0.196 µM.
